# Reference: patent US12691092B2, “Method for reducing cutaneous skin scarring by pre-emptive priming and compounds and compositions for its implementation” (SOS SCIENCE OF SKIN LTD, priority 2020, dated 2026)
# How the values were obtained:
# [1] = system: human skin scarring model; test: Scar thickness by H+E stain; type: in vivo; settings: weeks 4 and 8, Groups 1, 2 and 4
# Method: (§1) A double-blind randomized placebo-controlled trial was conducted using a temporal punch-biopsy model. The punch biopsy and topical application methodology used in the study is illustrated in FIG. 1, namely showing pre-injury pre-emptive priming (7-days), pre-injury pre-emptive priming (3-days), day of injury (immediate application on day 0), post-injury (delayed 2 weeks post injury) including biopsy time points and time of topical applications. Each group applied both placebo and topical formulations twice daily for the duration of the study until week 8, with only the starting time point differing between groups Participants were split into 4 groups (n=10 in each group) in order to compare different modes (timings) of commencement of the topical application: • Group-1: Pre-emptive Priming (7-days): pre-injury • Group-2: Pre-emptive Priming (3-days): pre-injury • Group-3: Immediate (0-day): day-of-injury • Group-4: Delayed (14-days): post-injury Clinical quantitative devices were used to objectively monitor cutaneous healing at weekly intervals and punch biopsies were performed on day 0 (uninjured skin) and at weeks 4 and 8 for protein and gene expression analyses. […] Excisional skin biopsies in upper arms were evaluated weekly with multiple quantitative devices over an 8-week period. […]
# [2] = system: CD31; test: QRT-PCR for CD31; type: in vivo, human; settings: week 4, all groups
# Method: as §1
# [3] = system: elastin; test: Immunohistochemical analysis of elastin in scar biopsies; type: in vivo, human
# Method: A double-blind randomized placebo-controlled trial was conducted using a temporal punch-biopsy model. The punch biopsy and topical application methodology used in the study is illustrated in FIG. 1, namely showing pre-injury pre-emptive priming (7-days), pre-injury pre-emptive priming (3-days), day of injury (immediate application on day 0), post-injury (delayed 2 weeks post injury) including biopsy time points and time of topical applications. Each group applied both placebo and topical formulations twice daily for the duration of the study until week 8, with only the starting time point differing between groups Participants were split into 4 groups (n=10 in each group) in order to compare different modes (timings) of commencement of the topical application: • Group-1: Pre-emptive Priming (7-days): pre-injury • Group-2: Pre-emptive Priming (3-days): pre-injury • Group-3: Immediate (0-day): day-of-injury • Group-4: Delayed (14-days): post-injury Clinical quantitative devices were used to objectively monitor cutaneous healing at weekly intervals and punch biopsies were performed on day 0 (uninjured skin) and at weeks 4 and 8 for protein and gene expression analyses. In the trial, topical EGCG and a placebo topical were applied twice daily for the duration of the trial until week 8 with only the starting time points differing between groups. Clinical and experimental analysis involved use of non-invasive devices as well as protein and gene studies. Excisional skin biopsies in upper arms were evaluated weekly with multiple quantitative devices over an 8-week period. Immunohistochemical analyses, mRNA sequencing and QRT-PCR were performed on tissue biopsies. […] There was also a significant increase at week-4 in group-1 only by 12% with EGCG (P=0.01). Between group analysis indicated a significant difference at week-8 (p=0.001). The greatest differences were in group-1 compared to groups-3 by 20% (p=0.008) and group-4 by 20% (p=0.003) and in group-2 compared to group-4 by 17% (p=0.009).
smiles,measurement,setting,value
"O=C(OC1Cc2c(O)cc(O)cc2OC1c1cc(O)c(O)c(O)c1)c1cc(O)c(O)c(O)c1 (single isomer, unassigned; (-)) [EGCG, (-)-epigallocatechin-3-gallate]",Scar thickness by H+E stain with EGCG,[1],reduced scar thickness
same,"QRT-PCR CD31, EGCG-treated samples compared to placebo",[2],significant down regulation
same,Elastin levels in primed uninjured skin,[3]; primed uninjured skin prior to injury,increases elastin levels
same,Elastin (immunohistochemical) increase with EGCG,"[3]; week 4, group-1 only, P=0.01",12%
same,"Elastin (immunohistochemical), EGCG-treated samples compared to placebo","[3]; week 8, all groups, p<0.01",up-regulated
same,Elastin: difference of group-2 compared to group-4,"[3]; week 8, 3-day priming vs delayed, p=0.009",17%
same,Elastin: difference of group-1 compared to group-4,"[3]; week 8, 7-day priming vs delayed, p=0.003",20%
same,Elastin: difference of group-1 compared to group-3,"[3]; week 8, 7-day priming vs immediate, p=0.008",20%
